How the values were obtained:
Format in all cases: in vivo
[1] = system: Plutella xylostella (Diamond Back Moth); assay: Example B1: activity against Plutella xylostella, artificial diet in 24-well plates; conditions: 120 h, application rate 200 ppm, L2 larvae on artificial diet, 5 days after infestation, read-out: effect in at least one of the two categories (mortality or growth inhibition)
Procedure: (§1) 24-well microtiter plates with artificial diet were treated with aqueous test solutions prepared from 10'000 ppm DMSO stock solutions by pipetting. After drying, the plates were infested with L2 larvae (10 to 15 per well). The samples were assessed for mortality and growth inhibition in comparison to untreated samples 5 days after infestation.

[2] = system: Myzus persicae (Green Peach Aphid); assay: Example B2: activity against Myzus persicae, sprayed sunflower leaf discs; conditions: foliar, 144 h, application rate 200 ppm, aphid population of mixed ages, 6 days after infestation
Procedure: (§2) Sunflower leaf discs were placed on agar in a 24-well microtiter plate and sprayed with aqueous test solutions prepared from 10'000 ppm DMSO stock solutions. After drying, the leaf discs were infested with an aphid population of mixed ages. The samples were assessed for mortality 6 days after infestation.

[3] = system: Myzus persicae (Green Peach Aphid); assay: Example B3: activity against Myzus persicae, roots of pea seedlings in test solution; conditions: 144 h, test rate 24 ppm, roots of infested pea seedlings in test solution, 6 days
Procedure: Roots of pea seedlings infested with an aphid population of mixed ages were placed directly in the aqueous test solutions prepared from 10'000 DMSO stock solutions. The samples were assessed for mortality 6 days after placing seedlings in test solutions.

[4] = system: Frankliniella occidentalis (Western Flower Thrips); assay: Example B4: activity against Frankliniella occidentalis, sprayed sunflower leaf discs; conditions: foliar, 168 h, application rate 200 ppm, population of mixed ages, 7 days after infestation
Procedure: as §2, with “in” for “in a”, “plates” for “plate”, “10'000” for “10'000 ppm”, “drying” for “drying,”, “a Frankliniella” for “an aphid”, “7” for “6”

[5] = system: Bemisia tabaci (Cotton White Fly); assay: Example B5: activity against Bemisia tabaci, sprayed cotton leaf discs; conditions: foliar, 144 h, application rate 200 ppm, adult white flies, 6 days after incubation
Procedure: Cotton leaf discs were placed on agar in 24-well microtiter plates and sprayed with aqueous test solutions prepared from 10'000 ppm DMSO stock solutions. After drying the leaf discs were infested with adult white flies. The samples were checked for mortality 6 days after incubation.

[6] = system: Euschistus heros (Neotropical Brown Stink Bug); assay: Example B6: activity against Euschistus heros, sprayed soybean leaf; conditions: 120 h, application rate 200 ppm, N-2 nymphs, 5 days after infestation, read-out: effect in at least one of the two categories (mortality or growth inhibition)
Procedure: Soybean leaf on agar in 24-well microtiter plates were sprayed with aqueous test solutions prepared from 10'000 ppm DMSO stock solutions. After drying the leaf were infested with N-2 nymphs. The samples were assessed for mortality and growth inhibition in comparison to untreated samples 5 days after infestation.

[7] = system: Spodoptera littoralis (Egyptian Cotton Leaf Worm); assay: Example B7: activity against Spodoptera littoralis, sprayed cotton leaf discs; conditions: foliar, 72 h, application rate 200 ppm, L1 larvae, 3 days after infestation
Procedure: Cotton leaf discs were placed onto agar in 24-well microtiter plates and sprayed with aqueous test solutions prepared from 10'000 ppm DMSO stock solutions. After drying the leaf discs were infested with five L1 larvae. The samples were assessed for mortality, anti-feeding effect, and growth inhibition in comparison to untreated samples 3 days after infestation. Control of Spodoptera littoralis by a test sample is given when at least one of the categories mortality, anti-feedant effect, and growth inhibition is higher than the untreated sample.

[8] = system: Diabrotica Balteata (Corn Root Worm); assay: Example B7: activity against Diabrotica balteata, sprayed maize sprouts; conditions: 96 h, application rate 200 ppm, L2 larvae, 4 days after infestation, read-out: effect in at least one of the two categories (mortality or growth inhibition)
Procedure: as §1, with “Maize sprouts placed onto an agar layer in 24-well” for “24-well”, “plates” for “plates with artificial diet”, “spraying.” for “pipetting.”, “(6” for “(10”, “10” for “15”, “4” for “5”

CCS(=O)(=O)c1cc(N=S(C)(C)=O)cnc1-c1cn2cnc(C(F)(F)F)cc2n1 [P1, [5-ethylsulfonyl-6-[7-(trifluoromethyl)imidazo[1,2-c]pyrimidin-2-yl]-3-pyridyl]imino-dimethyl-oxo-λ^6-sulfane]
≥ 80%: percent effect (mortality or growth inhibition) at 200 ppm [1] | mortality at 200 ppm [2] | mortality at 24 ppm [3] | mortality at 200 ppm [4] | mortality at 200 ppm [5] | percent effect (mortality or growth inhibition) at 200 ppm [6] | percent control (mortality, anti-feedant effect or growth inhibition) at 200 ppm [7]

CCS(=O)(=O)c1cc(N=S2(=O)CCOCC2)cnc1-c1nc2cc(C(F)(F)F)ncc2n1C [P5, 4-[[5-ethylsulfonyl-6-[3-methyl-6-(trifluoromethyl)imidazo[4,5-c]pyridin-2-yl]-3-pyridyl]imino]-1,4-oxathiane 4-oxide]
≥ 80%: percent effect (mortality or growth inhibition) at 200 ppm [1] | mortality at 200 ppm [2] | mortality at 24 ppm [3] | mortality at 200 ppm [4] | mortality at 200 ppm [5] | percent effect (mortality or growth inhibition) at 200 ppm [6] | percent control (mortality, anti-feedant effect or growth inhibition) at 200 ppm [7]

CCS(=O)(=O)c1cc(N=S2(=O)CCCC2)cnc1-c1nc2cc(C(F)(F)F)ncc2n1C [P6, 1-[[5-ethylsulfonyl-6-[3-methyl-6-(trifluoromethyl)imidazo[4,5-c]pyridin-2-yl]-3-pyridyl]imino]thiolane 1-oxide]
≥ 80%: percent effect (mortality or growth inhibition) at 200 ppm [1] | mortality at 200 ppm [2] | mortality at 24 ppm [3] | mortality at 200 ppm [4] | mortality at 200 ppm [5] | percent effect (mortality or growth inhibition) at 200 ppm [6]

CCS(=O)(=O)c1cc(N=S(C)(=O)C2CC2)cnc1-c1cn2cnc(C(F)(F)F)cc2n1 (stereo not drawn) [P8, cyclopropyl-[[5-ethylsulfonyl-6-[7-(trifluoromethyl)imidazo[1,2-c]pyrimidin-2-yl]-3-pyridyl]imino]-methyl-oxo-λ^6-sulfane]
≥ 80%: percent effect (mortality or growth inhibition) at 200 ppm [1] | mortality at 200 ppm [2] | mortality at 24 ppm [3] | mortality at 200 ppm [4] | mortality at 200 ppm [5] | percent effect (mortality or growth inhibition) at 200 ppm [6] | percent effect (mortality or growth inhibition) at 200 ppm [8] | percent control (mortality, anti-feedant effect or growth inhibition) at 200 ppm [7]

CCS(=O)(=O)c1cc(N=S(C)(=O)C2CC2)cnc1-n1cc2cnc(C(F)(F)F)cc2n1 (stereo not drawn) [P12, cyclopropyl-[[5-ethylsulfonyl-6-[6-(trifluoromethyl)pyrazolo[4,3-c]pyridin-2-yl]-3-pyridyl]imino]-methyl-oxo-λ^6-sulfane]
≥ 80%: percent effect (mortality or growth inhibition) at 200 ppm [1] | mortality at 200 ppm [2] | mortality at 200 ppm [4] | mortality at 200 ppm [5] | percent effect (mortality or growth inhibition) at 200 ppm [6] | percent effect (mortality or growth inhibition) at 200 ppm [8] | percent control (mortality, anti-feedant effect or growth inhibition) at 200 ppm [7]

CCS(=O)(=O)c1cc(N=S2(=O)CCC2)cnc1-c1cn2cnc(C(F)(F)F)cc2n1 [P13, 1-[[5-ethylsulfonyl-6-[7-(trifluoromethyl)imidazo[1,2-c]pyrimidin-2-yl]-3-pyridyl]imino]thietane 1-oxide]
≥ 80%: percent effect (mortality or growth inhibition) at 200 ppm [1] | mortality at 200 ppm [2] | mortality at 24 ppm [3] | mortality at 200 ppm [4] | mortality at 200 ppm [5] | percent effect (mortality or growth inhibition) at 200 ppm [6] | percent control (mortality, anti-feedant effect or growth inhibition) at 200 ppm [7]

CCS(=O)(=O)c1cc(N=S(C)(C)=O)ccc1-c1cn2cnc(C(F)(F)F)cc2n1 [P14, [3-ethylsulfonyl-4-[7-(trifluoromethyl)imidazo[1,2-c]pyrimidin-2-yl]phenyl]imino-dimethyl-oxo-λ^6-sulfane]
≥ 80%: percent effect (mortality or growth inhibition) at 200 ppm [1] | mortality at 200 ppm [2] | mortality at 24 ppm [3] | mortality at 200 ppm [5] | percent effect (mortality or growth inhibition) at 200 ppm [6]

CCS(=O)(=O)c1cc(N=S(C)(=O)C2CC2)ccc1-c1cn2cnc(C(F)(F)F)cc2n1 (stereo not drawn) [P15, cyclopropyl-[3-ethylsulfonyl-4-[7-(trifluoromethyl)imidazo[1,2-c]pyrimidin-2-yl]phenyl]imino-methyl-oxo-λ^6-sulfane]
≥ 80%: percent effect (mortality or growth inhibition) at 200 ppm [1] | mortality at 200 ppm [2] | percent effect (mortality or growth inhibition) at 200 ppm [6] | percent effect (mortality or growth inhibition) at 200 ppm [8]

CCS(=O)(=O)c1cc(N=S(C)(C)=O)cnc1-n1cc2cnc(C(F)(F)F)cc2n1 [P16, [5-ethylsulfonyl-6-[6-(trifluoromethyl)pyrazolo[4,3-c]pyridin-2-yl]-3-pyridyl]imino-dimethyl-oxo-λ^6-sulfane]
≥ 80%: percent effect (mortality or growth inhibition) at 200 ppm [1] | mortality at 200 ppm [2] | mortality at 24 ppm [3] | mortality at 200 ppm [4] | mortality at 200 ppm [5] | percent effect (mortality or growth inhibition) at 200 ppm [6] | percent effect (mortality or growth inhibition) at 200 ppm [8] | percent control (mortality, anti-feedant effect or growth inhibition) at 200 ppm [7]

CCS(=O)(=O)c1cc(N=S(C)C)cnc1-c1nc2cc(C(F)(F)F)ncc2n1C [P17, [5-ethylsulfonyl-6-[3-methyl-6-(trifluoromethyl)imidazo[4,5-c]pyridin-2-yl]-3-pyridyl]imino-dimethyl-λ^4-sulfane]
≥ 80%: mortality at 200 ppm [2] | percent effect (mortality or growth inhibition) at 200 ppm [6] | percent effect (mortality or growth inhibition) at 200 ppm [8]

CCS(CC)=Nc1cnc(-c2nc3cc(C(F)(F)F)ncc3n2C)c(S(=O)(=O)CC)c1 [P18]
≥ 80%: mortality at 200 ppm [2] | percent effect (mortality or growth inhibition) at 200 ppm [6] | percent effect (mortality or growth inhibition) at 200 ppm [8]

CCS(=O)(=O)c1cc(N=S(C)(=O)CC)cnc1-c1nc2cc(C(F)(F)F)ncc2n1C (stereo not drawn) [P19, ethyl-[[5-ethylsulfonyl-6-[3-methyl-6-(trifluoromethyl)imidazo[4,5-c]pyridin-2-yl]-3-pyridyl]imino]-methyl-oxo-λ^6-sulfane]
≥ 80%: percent effect (mortality or growth inhibition) at 200 ppm [1] | mortality at 200 ppm [2] | mortality at 24 ppm [3] | mortality at 200 ppm [4] | mortality at 200 ppm [5] | percent effect (mortality or growth inhibition) at 200 ppm [6] | percent effect (mortality or growth inhibition) at 200 ppm [8]

CCSc1cc(N=S(C)(C)=O)cnc1-c1nc2cc(C(F)(F)F)ncc2n1C [P20, [5-ethylsulfanyl-6-[3-methyl-6-(trifluoromethyl)imidazo[4,5-c]pyridin-2-yl]-3-pyridyl]imino-dimethyl-oxo-λ^6-sulfane]
≥ 80%: mortality at 200 ppm [2] | mortality at 24 ppm [3] | mortality at 200 ppm [4] | percent effect (mortality or growth inhibition) at 200 ppm [6] | percent effect (mortality or growth inhibition) at 200 ppm [8]

CCS(=O)(=O)c1cc(N=S2(=O)CCOCC2)ccc1-c1nc2cc(C(F)(F)F)ncc2n1C [P21, 4-[3-ethylsulfonyl-4-[3-methyl-6-(trifluoromethyl)imidazo[4,5-c]pyridin-2-yl]phenyl]imino-1,4-oxathiane 4-oxide]
≥ 80%: mortality at 24 ppm [3] | mortality at 200 ppm [5] | percent effect (mortality or growth inhibition) at 200 ppm [6]

CCS(=O)(=O)c1cc(N=S2(=O)CCOCC2)cnc1-c1cn2cnc(C(F)(F)F)cc2n1 [P22, 4-[[5-ethylsulfonyl-6-[7-(trifluoromethyl)imidazo[1,2-c]pyrimidin-2-yl]-3-pyridyl]imino]-1,4-oxathiane 4-oxide]
≥ 80%: percent effect (mortality or growth inhibition) at 200 ppm [1] | mortality at 200 ppm [2] | mortality at 24 ppm [3] | mortality at 200 ppm [4] | mortality at 200 ppm [5] | percent effect (mortality or growth inhibition) at 200 ppm [6] | percent control (mortality, anti-feedant effect or growth inhibition) at 200 ppm [7]
